{
  "source": "patent US20180256673A1",
  "about": "“METHODS FOR TREATING FUNGAL INFECTIONS” (priority 2015, published 2018)",
  "key": {"C. albicans": {"test_system": "C. albicans", "assay": "Mutant prevention concentration (MPC) determination", "assay_type": "cell-based, Candida albicans", "conditions": "wild-type isolates; 24 hr, ~1×10^7 CFU/mL"}, "Candida parapsilosis": {"test_system": "Candida parapsilosis", "assay": "Broth microdilution of invasive fungal isolates (CLSI M27-A3/M38-A2)", "assay_type": "cell-based"}, "C. tropicalis": {"test_system": "C. tropicalis", "assay": "Antifungal susceptibility testing (CLSI M27-S4), WT and echinocandin-resistant isolates", "conditions": "24 hr", "protocol": "(§1) Antifungal susceptibility testing. Antifungal susceptibility testing was performed in triplicate for a collection of 95 Candida strains (20 C. albicans, 20 C. glabrata, 2 C. dubliniensis, 15 C. krusei, 19 C. parapsilosis, and 19 C. tropicalis) that included 30 isolates showing an echinocandin resistance (ER) phenotype (caspofungin-resistant) in accordance with the guidelines described in the Clinical and Laboratory Standards Institute (CLSI) document M27-S4. […] Stock solutions of the drugs were kept at −86° C."}, "Aspergillus fumigatus": {"test_system": "Aspergillus fumigatus", "assay": "Broth microdilution of invasive fungal isolates (CLSI M27-A3/M38-A2), MEC", "assay_type": "cell-based", "conditions": "56 isolates"}, "Candida orthopsilosis": {"test_system": "Candida orthopsilosis", "assay": "Broth microdilution of invasive fungal isolates (CLSI M27-A3/M38-A2)", "assay_type": "cell-based"}, "Candida dubliniensis": {"test_system": "Candida dubliniensis", "assay": "Broth microdilution of invasive fungal isolates (CLSI M27-A3/M38-A2)", "assay_type": "cell-based"}, "[1]": {"test_system": "C. parapsilosis vaginal isolates", "assay": "Susceptibility testing of VVC clinical isolates at pH 7 and 4 (CLSI M27-A3)", "assay_type": "cell-based, Candida parapsilosis"}, "[2]": {"target": "1,3-β-D-glucan synthase from C. albicans (Candida albicans, UniProt O13428, S645P)", "sequence (O13428 entry or part of it S645P)": "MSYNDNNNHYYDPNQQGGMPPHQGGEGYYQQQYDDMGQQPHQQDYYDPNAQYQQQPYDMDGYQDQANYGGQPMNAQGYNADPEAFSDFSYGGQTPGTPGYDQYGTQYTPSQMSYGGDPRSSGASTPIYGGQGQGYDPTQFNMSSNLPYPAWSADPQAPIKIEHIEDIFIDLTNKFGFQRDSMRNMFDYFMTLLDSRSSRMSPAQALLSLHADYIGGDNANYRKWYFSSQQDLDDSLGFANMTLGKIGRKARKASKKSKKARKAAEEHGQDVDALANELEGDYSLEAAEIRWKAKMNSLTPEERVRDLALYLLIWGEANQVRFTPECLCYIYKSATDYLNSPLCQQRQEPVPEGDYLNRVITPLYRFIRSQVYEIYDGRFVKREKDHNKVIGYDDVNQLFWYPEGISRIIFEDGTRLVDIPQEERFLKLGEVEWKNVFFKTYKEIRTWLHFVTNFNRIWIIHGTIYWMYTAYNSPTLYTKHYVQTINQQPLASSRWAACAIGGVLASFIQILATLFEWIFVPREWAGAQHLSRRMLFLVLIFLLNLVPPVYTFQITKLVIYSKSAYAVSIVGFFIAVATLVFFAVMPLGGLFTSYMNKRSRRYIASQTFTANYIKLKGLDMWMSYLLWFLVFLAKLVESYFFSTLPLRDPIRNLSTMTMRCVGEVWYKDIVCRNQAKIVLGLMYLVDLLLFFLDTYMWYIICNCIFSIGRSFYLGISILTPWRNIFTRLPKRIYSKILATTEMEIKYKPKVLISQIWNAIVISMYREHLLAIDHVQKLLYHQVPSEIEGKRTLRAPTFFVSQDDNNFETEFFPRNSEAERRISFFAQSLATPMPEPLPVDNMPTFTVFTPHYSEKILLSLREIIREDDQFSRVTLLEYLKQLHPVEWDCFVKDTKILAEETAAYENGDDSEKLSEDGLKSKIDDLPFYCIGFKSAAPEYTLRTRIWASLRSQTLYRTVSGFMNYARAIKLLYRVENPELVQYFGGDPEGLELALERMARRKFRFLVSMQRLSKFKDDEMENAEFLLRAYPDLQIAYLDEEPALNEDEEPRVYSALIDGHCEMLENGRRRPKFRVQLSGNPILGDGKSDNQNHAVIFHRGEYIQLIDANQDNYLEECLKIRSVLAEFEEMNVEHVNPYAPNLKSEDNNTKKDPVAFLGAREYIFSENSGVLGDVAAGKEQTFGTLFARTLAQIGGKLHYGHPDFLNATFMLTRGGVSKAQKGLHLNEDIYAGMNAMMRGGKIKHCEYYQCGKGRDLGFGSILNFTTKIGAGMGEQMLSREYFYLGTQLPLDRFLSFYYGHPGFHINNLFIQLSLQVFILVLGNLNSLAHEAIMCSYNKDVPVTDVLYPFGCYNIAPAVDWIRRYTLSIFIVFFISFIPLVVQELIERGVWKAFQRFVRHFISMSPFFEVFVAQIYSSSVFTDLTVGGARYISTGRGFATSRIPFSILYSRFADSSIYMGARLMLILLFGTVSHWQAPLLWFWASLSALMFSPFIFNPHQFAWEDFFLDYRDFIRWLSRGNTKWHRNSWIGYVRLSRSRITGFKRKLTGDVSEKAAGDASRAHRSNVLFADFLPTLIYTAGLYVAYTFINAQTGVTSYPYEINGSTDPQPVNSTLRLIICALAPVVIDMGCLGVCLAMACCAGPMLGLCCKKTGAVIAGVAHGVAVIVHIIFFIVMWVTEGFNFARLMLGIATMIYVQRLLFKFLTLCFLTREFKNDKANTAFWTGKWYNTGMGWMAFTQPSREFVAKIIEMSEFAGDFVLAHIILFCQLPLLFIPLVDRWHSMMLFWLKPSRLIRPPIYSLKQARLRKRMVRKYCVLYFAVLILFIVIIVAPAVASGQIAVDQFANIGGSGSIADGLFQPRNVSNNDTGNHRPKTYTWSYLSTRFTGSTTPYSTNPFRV", "assay": "Glucan synthase (GS) inhibition assay", "conditions": "IC50, DPL20; Fks1 S645P"}, "[3]": {"target": "1,3-β-D-glucan synthase from C. albicans (Candida albicans, UniProt O13428)", "assay": "Glucan synthase (GS) inhibition assay"}, "[4]": {"test_system": "1,3-β-D-glucan synthase from C. glabrata", "assay": "Glucan synthase (GS) inhibition assay"}, "[5]": {"test_system": "C. glabrata vaginal isolates", "assay": "Susceptibility testing of VVC clinical isolates at pH 7 and 4 (CLSI M27-A3)", "assay_type": "cell-based, Candida glabrata", "conditions": "Nakaseomyces glabratus"}, "Candida tropicalis": {"test_system": "Candida tropicalis", "assay": "Broth microdilution of invasive fungal isolates (CLSI M27-A3/M38-A2)", "assay_type": "cell-based"}, "C. dubliniensis": {"test_system": "C. dubliniensis", "assay": "Antifungal susceptibility testing (CLSI M27-S4), WT and echinocandin-resistant isolates", "conditions": "24 hr", "protocol": "as §1"}, "C. parapsilosis": {"test_system": "C. parapsilosis", "assay": "Antifungal susceptibility testing (CLSI M27-S4)", "conditions": "WT (19 isolates); 24 hr", "protocol": "as §1"}},
  "note": "Starred links: 1 amine or outer side, 2 acyl side, 3 side chain; linkers in the order of their positions; H or OH if unused. Positions of bridges follow the written chain, without caps; N, C: chain ends. Non-standard residues stand in square brackets, D forms with d. Residues, ends and D or L forms follow the SMILES beside them. *: point of attachment. hTyr(3S-OH,4S-OH,3'-OSO3H) = N[C@H](C(=O)O)[C@H](O)[C@@H](O)c1ccc(O)c(OS(=O)(=O)O)c1; Orn(4R-OH,5R-OH) = O=C([C@H](C[C@@H](O)[C@@H](O)N[*:3])N[*:1])[*:2]; Pro(3S-OH,4S-Me) = C[C@H]1CN[C@H](C(=O)O)[C@H]1O; X1 = CCCCCOc1ccc(-c2cc(-c3ccc(C(=O)*)cc3)no2)cc1; Gln(3R-OH) = NC(=O)C[C@@H](O)[C@H](N)C(=O)O; Hyp = O=C(O)[C@@H]1C[C@@H](O)CN1",
  "data": [
    {"smiles": "CCCCCOc1ccc(-c2cc(-c3ccc(C(=O)N[C@H]4C[C@@H](O)[C@@H](O)NC(=O)[C@@H]5[C@@H](O)[C@@H](C)CN5C(=O)[C@H]([C@H](O)CC(N)=O)NC(=O)[C@H]([C@H](O)[C@@H](O)c5ccc(O)c(OS(=O)(=O)O)c5)NC(=O)[C@@H]5C[C@@H](O)CN5C(=O)[C@H]([C@@H](C)O)NC4=O)cc3)no2)cc1", "note": "[MCF, micafungin] (X1-[Orn(4R-OH,5R-OH)]T[Hyp][hTyr(3S-OH,4S-OH,3'-OSO3H)][Gln(3R-OH)][Pro(3S-OH,4S-Me)]; lactam 1-C)", "values": [
      {"measurement": "MPC", "setting": "C. albicans", "result": 16, "unit": "µg/mL"},
      {"measurement": "Cumulative % of isolates inhibited at MIC 0.5 μg/mL", "setting": "Candida parapsilosis; 92 isolates", "result": "(10.9) %"},
      {"measurement": "Cumulative % of isolates inhibited at MIC 1 μg/mL", "setting": "Candida parapsilosis; 92 isolates", "result": "(72.8) %"},
      {"measurement": "Cumulative % of isolates inhibited at MIC 2 μg/mL", "setting": "Candida parapsilosis; 92 isolates", "result": "(100.0) %"},
      {"measurement": "Number of isolates inhibited at MIC 0.5 μg/mL", "setting": "Candida parapsilosis; 92 isolates", "result": 10},
      {"measurement": "Number of isolates inhibited at MIC 1 μg/mL", "setting": "Candida parapsilosis; 92 isolates", "result": 57},
      {"measurement": "Number of isolates inhibited at MIC 2 μg/mL", "setting": "Candida parapsilosis; 92 isolates", "result": 25},
      {"measurement": "MIC50", "setting": "Candida parapsilosis; Lodderomyces parapsilosis", "result": 1, "unit": "µg/mL"},
      {"measurement": "MIC90", "setting": "Candida parapsilosis; Lodderomyces parapsilosis", "result": 2, "unit": "µg/mL"},
      {"measurement": "MIC median (range)", "setting": "C. tropicalis; ER (4 isolates)", "result": "2.00 (1-4) mg/L"},
      {"measurement": "MIC median (range)", "setting": "C. tropicalis; WT (15 isolates)", "result": "0.03 (0.03)^ mg/L"},
      {"measurement": "Cumulative % of isolates inhibited at MEC 0.015 μg/mL", "setting": "Aspergillus fumigatus", "result": "(96.4) %"},
      {"measurement": "Cumulative % of isolates inhibited at MEC 0.03 μg/mL", "setting": "Aspergillus fumigatus", "result": "(100.0) %"},
      {"measurement": "Cumulative % of isolates inhibited at MEC ≤0.008 μg/mL", "setting": "Aspergillus fumigatus", "result": "(28.6) %"},
      {"measurement": "MEC50", "setting": "Aspergillus fumigatus", "result": ".015 µg/mL"},
      {"measurement": "MEC90", "setting": "Aspergillus fumigatus", "result": ".015 µg/mL"},
      {"measurement": "Number of isolates inhibited at MEC 0.015 μg/mL", "setting": "Aspergillus fumigatus", "result": 38},
      {"measurement": "Number of isolates inhibited at MEC 0.03 μg/mL", "setting": "Aspergillus fumigatus", "result": 2},
      {"measurement": "Number of isolates inhibited at MEC ≤0.008 μg/mL", "setting": "Aspergillus fumigatus", "result": 16},
      {"measurement": "Cumulative % of isolates inhibited at MIC 0.12 μg/mL", "setting": "Candida orthopsilosis; 10 isolates", "result": "(20.0) %"},
      {"measurement": "Cumulative % of isolates inhibited at MIC 0.25 μg/mL", "setting": "Candida orthopsilosis; 10 isolates", "result": "(40.0) %"},
      {"measurement": "Cumulative % of isolates inhibited at MIC 0.5 μg/mL", "setting": "Candida orthopsilosis; 10 isolates", "result": "(70.0) %"},
      {"measurement": "Cumulative % of isolates inhibited at MIC 1 μg/mL", "setting": "Candida orthopsilosis; 10 isolates", "result": "(100.0) %"},
      {"measurement": "Number of isolates inhibited at MIC 0.12 μg/mL", "setting": "Candida orthopsilosis; 10 isolates", "result": 2},
      {"measurement": "Number of isolates inhibited at MIC 0.25 μg/mL", "setting": "Candida orthopsilosis; 10 isolates", "result": 2},
      {"measurement": "Number of isolates inhibited at MIC 0.5 μg/mL", "setting": "Candida orthopsilosis; 10 isolates", "result": 3},
      {"measurement": "Number of isolates inhibited at MIC 1 μg/mL", "setting": "Candida orthopsilosis; 10 isolates", "result": 3},
      {"measurement": "MIC50", "setting": "Candida orthopsilosis; Lodderomyces orthopsilosis", "result": 0.5, "unit": "µg/mL"},
      {"measurement": "MIC90", "setting": "Candida orthopsilosis; Lodderomyces orthopsilosis", "result": 1, "unit": "µg/mL"},
      {"measurement": "Cumulative % of isolates inhibited at MIC 0.015 μg/mL", "setting": "Candida dubliniensis; 11 isolates", "result": "(27.3) %"},
      {"measurement": "Cumulative % of isolates inhibited at MIC 0.03 μg/mL", "setting": "Candida dubliniensis; 11 isolates", "result": "(100.0) %"},
      {"measurement": "Number of isolates inhibited at MIC 0.015 μg/mL", "setting": "Candida dubliniensis; 11 isolates", "result": 3},
      {"measurement": "Number of isolates inhibited at MIC 0.03 μg/mL", "setting": "Candida dubliniensis; 11 isolates", "result": 8},
      {"measurement": "MIC50", "setting": "Candida dubliniensis; Candida dubliniensis", "result": 0.03, "unit": "µg/mL"},
      {"measurement": "MIC90", "setting": "Candida dubliniensis; Candida dubliniensis", "result": 0.03, "unit": "µg/mL"},
      {"measurement": "MIC90", "setting": "[1]; 24 h, pH 4", "result": 0.5, "unit": "µg/mL"},
      {"measurement": "MIC90", "setting": "[1]; 24 h, pH 7", "result": 1, "unit": "µg/mL"},
      {"measurement": "MIC90", "setting": "[1]; 48 h, pH 4", "result": 1, "unit": "µg/mL"},
      {"measurement": "MIC90", "setting": "[1]; 48 h, pH 7", "result": 2, "unit": "µg/mL"},
      {"measurement": "IC50", "setting": "[2]", "result": 2010, "unit": "nM"},
      {"measurement": "IC50", "setting": "[3]; IC50, DPL1002, WT", "result": 13.9, "unit": "nM"},
      {"measurement": "IC50", "setting": "[3]; IC50, glucan synthase, ATCC 90028, WT", "result": 14.2, "unit": "nM"},
      {"measurement": "IC50", "setting": "[3]; glucan synthase, DPL22, Fks1p S645P/S", "result": 193, "unit": "nM"},
      {"measurement": "IC50", "setting": "[4]; DPL50, WT", "result": 0.000447, "unit": "µg/mL"},
      {"measurement": "GS activity after treatment with a high dose", "setting": "[4]; F659del mutant GS, 10,000 ng/mL", "result": "did not exhibit significant reductions in activity"},
      {"measurement": "MIC90", "setting": "[5]; 24 h, pH 4", "result": 0.016, "unit": "µg/mL"},
      {"measurement": "MIC90", "setting": "[5]; 24 h, pH 7", "result": 0.008, "unit": "µg/mL"},
      {"measurement": "MIC90", "setting": "[5]; 48 h, pH 4", "result": 0.03, "unit": "µg/mL"},
      {"measurement": "MIC90", "setting": "[5]; 48 h, pH 7", "result": 0.016, "unit": "µg/mL"},
      {"measurement": "Cumulative % of isolates inhibited at MIC 0.015 μg/mL", "setting": "Candida tropicalis; 51 isolates", "result": "(31.4) %"},
      {"measurement": "Cumulative % of isolates inhibited at MIC 0.03 μg/mL", "setting": "Candida tropicalis; 51 isolates", "result": "(84.3) %"},
      {"measurement": "Cumulative % of isolates inhibited at MIC 0.06 μg/mL", "setting": "Candida tropicalis; 51 isolates", "result": "(100.0) %"},
      {"measurement": "Cumulative % of isolates inhibited at MIC ≤0.008 μg/mL", "setting": "Candida tropicalis; 51 isolates", "result": "(2.0) %"},
      {"measurement": "Number of isolates inhibited at MIC 0.015 μg/mL", "setting": "Candida tropicalis; 51 isolates", "result": 15},
      {"measurement": "Number of isolates inhibited at MIC 0.03 μg/mL", "setting": "Candida tropicalis; 51 isolates", "result": 27},
      {"measurement": "Number of isolates inhibited at MIC 0.06 μg/mL", "setting": "Candida tropicalis; 51 isolates", "result": 8},
      {"measurement": "Number of isolates inhibited at MIC ≤0.008 μg/mL", "setting": "Candida tropicalis; 51 isolates", "result": 1},
      {"measurement": "MIC50", "setting": "Candida tropicalis; Candida tropicalis", "result": 0.03, "unit": "µg/mL"},
      {"measurement": "MIC90", "setting": "Candida tropicalis; Candida tropicalis", "result": 0.06, "unit": "µg/mL"},
      {"measurement": "MIC median (range)", "setting": "C. dubliniensis; ER (1 isolate)", "result": 0.03, "unit": "µg/mL"},
      {"measurement": "MIC median (range)", "setting": "C. dubliniensis; WT (1 isolate)", "result": 0.03, "unit": "µg/mL"},
      {"measurement": "MIC median (range)", "setting": "C. parapsilosis", "result": "4 (1-4) mg/L"}
    ]}
  ]
}
